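Grown in 96-well plates, cells were treated for 48 hours with each compound at five concentrations. Insufficient inhibition: endpoint recorded as highest concentration tested. At the GI50, growth is halved.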 Activity calls are given as the source filed them. Rule as the data show it: active = GI50 up to about 1.1 µM and inactive = higher.
How the values were obtained:
Assay in all cases: NCI anticancer screen, dose series, 48 h
A498 = tested on: A498
ACHN = tested on: ACHN
CCRF-CEM = tested on: CCRF-CEM
COLO 205 = tested on: COLO 205
DMS-273 = tested on: DMS-273
HT-29 = tested on: HT-29
M14 = tested on: M14
NCI-H23 = tested on: NCI-H23
NCI-H522 = tested on: NCI-H522
OVCAR-3 = tested on: OVCAR-3
SF-268 = tested on: SF-268
SK-MEL-28 = tested on: SK-MEL-28
SNB-75 = tested on: SNB-75
SR = tested on: SR
U-251 = tested on: U-251
CAKI-1 = tested on: CAKI-1
K562 = tested on: K562
MDA-MB-231 = tested on: MDA-MB-231
NCI/ADR-RES = tested on: NCI/ADR-RES
MDA-N = tested on: MDA-N

Measured: GI50

O=C(CSC(=S)N1CCOCC1)Nc1nc2c(s1)CCCC2
inactive: A498 > 100 µM | ACHN > 100 µM | CCRF-CEM 45.8 µM | COLO 205 > 100 µM | DMS-273 > 100 µM | HT-29 > 100 µM | M14 > 100 µM | NCI-H23 97.7 µM | NCI-H522 27.8 µM | OVCAR-3 51.9 µM | SF-268 > 100 µM | SK-MEL-28 > 100 µM | SNB-75 > 100 µM | SR 34.2 µM | U-251 > 100 µM

NCCSCC(N)C(=O)O (configuration not stated)
inactive: A498 > 497 µM | ACHN 65.9 µM | CAKI-1 > 100 µM | CCRF-CEM 29 µM | COLO 205 > 75.9 µM | DMS-273 > 497 µM | HT-29 39.5 µM | K562 37.2 µM | M14 > 497 µM | MDA-MB-231 > 100 µM | NCI-H23 > 497 µM | NCI-H522 > 63 µM | NCI/ADR-RES > 100 µM | OVCAR-3 > 64.9 µM | SF-268 > 497 µM | SK-MEL-28 > 497 µM | SNB-75 > 40.4 µM | SR > 497 µM | U-251 > 497 µM

O=C(NC(=O)c1c(Cl)nc2sccn12)Nc1ccc(Cl)cc1
inactive: A498 49.3 µM | ACHN 77.4 µM | CAKI-1 > 83.9 µM | CCRF-CEM > 100 µM | COLO 205 > 100 µM | DMS-273 > 46.3 µM | HT-29 > 100 µM | K562 > 100 µM | M14 78.3 µM | MDA-MB-231 25.5 µM | MDA-N > 100 µM | NCI-H23 33.5 µM | NCI-H522 61 µM | NCI/ADR-RES > 70.3 µM | OVCAR-3 71.4 µM | SF-268 26.2 µM | SK-MEL-28 > 100 µM | SNB-75 19.9 µM | SR > 100 µM | U-251 24.8 µM

C=C1C(=O)OC2(C)C3CCC(C3)C12 (configuration not stated)
inactive: ACHN > 100 µM | CAKI-1 30.1 µM | CCRF-CEM 24.8 µM | COLO 205 23.1 µM | DMS-273 68.4 µM | HT-29 34.9 µM | K562 33.3 µM | M14 27.7 µM | NCI-H23 30.8 µM | NCI-H522 21.7 µM | OVCAR-3 53.5 µM | SF-268 69.2 µM | SK-MEL-28 > 100 µM | SNB-75 47.1 µM | SR 29.6 µM | U-251 > 100 µM

C=CCC1(C)CCCCC1(O)C[S+]([O-])c1ccccc1 (configuration not stated)
inactive: A498 > 100 µM | ACHN > 100 µM | CAKI-1 > 100 µM | CCRF-CEM > 100 µM | COLO 205 > 100 µM | DMS-273 > 100 µM | HT-29 > 100 µM | M14 > 100 µM | NCI-H522 > 100 µM | OVCAR-3 > 100 µM | SF-268 > 100 µM | SK-MEL-28 > 100 µM | SNB-75 > 100 µM | SR > 100 µM | U-251 > 100 µM

CCOc1ccc(N2C(=O)C3c4[nH]c5ccccc5c4C4CCC(C(C)(C)C)CC4C3C2=O)cc1 (configuration not stated)
inactive: A498 > 100 µM | ACHN 57.5 µM | CCRF-CEM 10.3 µM | COLO 205 36.1 µM | DMS-273 > 100 µM | HT-29 32.1 µM | K562 > 100 µM | M14 > 100 µM | NCI-H23 82.8 µM | NCI-H522 66.7 µM | SF-268 > 100 µM | SK-MEL-28 > 100 µM | SNB-75 > 100 µM | SR 42.8 µM | U-251 > 100 µM

O=C(N/N=C1/C(=O)N(c2ccc(Cl)cc2Cl)C(=O)C(=O)C1c1nc2ccccc2o1)c1ccccc1O (configuration not stated)
inactive: A498 31.3 µM | ACHN 37.5 µM | CAKI-1 34.8 µM | CCRF-CEM 47.6 µM | COLO 205 52.7 µM | DMS-273 > 10 µM | HT-29 60.7 µM | K562 47 µM | M14 28.3 µM | NCI-H23 25.7 µM | NCI-H522 30.8 µM | OVCAR-3 21.8 µM | SF-268 41.2 µM | SK-MEL-28 29.6 µM | SNB-75 43.3 µM | SR 47.2 µM | U-251 > 10 µM

Reference: ChEMBL document CHEMBL1201862, “PubChem BioAssay data set” (2004)
